Source: patent US20250230165A1, “HETEROCYCLIC COMPOUNDS FOR USE IN THE TREATMENT OF CANCER” (ARTIOS PHARMA LIMITED, priority 2021, published 2025)

Target: T1, Human Polθ polymerase domain (aa1820-2590) (Homo sapiens, UniProt O75417)
T1 construct: Human Polθ polymerase domain (aa1820-2590) was expressed in E. coli; made in house; host or cells: E. coli
T1 sequence (O75417 1820-2590): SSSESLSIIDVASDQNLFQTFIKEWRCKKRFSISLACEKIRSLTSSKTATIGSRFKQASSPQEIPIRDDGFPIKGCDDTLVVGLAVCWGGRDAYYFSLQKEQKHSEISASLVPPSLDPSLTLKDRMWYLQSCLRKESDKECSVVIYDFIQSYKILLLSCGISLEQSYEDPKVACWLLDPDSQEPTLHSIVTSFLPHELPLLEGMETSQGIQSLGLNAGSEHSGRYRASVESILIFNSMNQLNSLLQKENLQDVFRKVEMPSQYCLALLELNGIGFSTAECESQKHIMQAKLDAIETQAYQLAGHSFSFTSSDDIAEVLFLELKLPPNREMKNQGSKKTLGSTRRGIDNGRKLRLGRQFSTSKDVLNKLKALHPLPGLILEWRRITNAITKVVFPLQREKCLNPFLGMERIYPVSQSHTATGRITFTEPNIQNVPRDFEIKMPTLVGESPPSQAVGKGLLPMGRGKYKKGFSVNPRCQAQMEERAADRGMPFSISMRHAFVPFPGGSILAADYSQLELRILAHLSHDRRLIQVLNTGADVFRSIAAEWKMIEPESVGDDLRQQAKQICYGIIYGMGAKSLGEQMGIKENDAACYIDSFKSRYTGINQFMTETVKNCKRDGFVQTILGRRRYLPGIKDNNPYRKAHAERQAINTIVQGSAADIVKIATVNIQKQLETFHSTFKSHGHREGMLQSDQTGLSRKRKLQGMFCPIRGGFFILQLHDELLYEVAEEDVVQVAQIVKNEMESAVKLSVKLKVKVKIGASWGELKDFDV
Test: Polθ Polymerase Domain Kinact/KI Assay (PicoGreen)
Type: biochemical
Conditions: 0.8 nM Polθ, 100 nM DNA substrate, kobs vs [I] fit for 2-step covalent inhibitor
Method in brief: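 Kinact and KI derive from fitting kobs versus [I], where kobs were fitted from EDTA-stopped PicoGreen time courses (up to 60 min) in Tris pH 7.5 buffer with 1% DMSO, 0.8 nM enzyme, 100 nM DNA and […].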

CC#CC(=O)N1CCn2cc(CN3C[C@H]4CC(=O)N(c5cc(C(F)(F)F)cc(C)n5)[C@@H]4C(=O)N(C)c4cccc(C)c43)nc2C1 [Example 201, (3aR,11aS)-5-((7-(but-2-ynoyl)-5,6,7,8-tetrahydro-imidazo[1,2-a]pyr-azin-2-yl)methyl)-6,10-dimethyl-1-(6-methyl-4-(tri-fluoromethyl)pyr-idin-2-yl)-1,3a,4,5,10,11a-hexa-hydro-2H-benzo [b]pyrrolo[2,3-f] [1,4]diazocine-2,11(3H)-dione]
Kinact/Kl: 2.8e+06 M⁻¹ s⁻¹

C=CC(=O)N1CCn2nc(CN3C[C@H]4CC(=O)N(c5cc(C(F)(F)F)cc(C)n5)[C@@H]4C(=O)N(C)c4cccc(C)c43)nc2C1 [Example 202, (3aR,11aS)-5-((7-acryloyl-5,6,7,8-tetrahydro-[1,2,4]triazolo [1,5-a]pyrazin-2-yl)methyl)-6,10-dimethyl-1-(6-methyl-4-(trifluoromethyl)pyridin-2-yl)-1,3a,4,5,10,11a-hexahydro-2H-benzo[b]pyrrolo [2,3-f][1,4]diazocine-2,11(3H)-dione]
Kinact/Kl: 5.56e+06 M⁻¹ s⁻¹

C=CC(=O)N1CCn2cc(CN3C[C@H]4CC(=O)N(c5cc(C(F)(F)F)cc(C)n5)[C@@H]4C(=O)N(C)c4cccc(C)c43)nc2C1 [Example 203, (3aR,11aS)-5-((7-acryloyl-5,6,7,8-tetrahydroimidazo [1,2-a]pyrazin-2-yl)methyl)-6,10-dimethyl-1-(6-methyl-4-(trifluoromethyl)pyridin-2-yl)-1,3a,4,5,10,11a-hexahydro-2H-benzo[b]pyrrolo [2,3-f][1,4]diazocine-2,11(3H)-dione]
Kinact/Kl: 4.32e+06 M⁻¹ s⁻¹

C=CC(=O)N1CCC(n2cnc(CN3C[C@H]4CC(=O)N(c5cc(C(F)(F)F)cc(C)n5)[C@@H]4C(=O)N(C)c4cccc(C)c43)n2)CC1 [Example 204, (3aR,11aS)-5-((1-(1-acryloylpiperidin-4-yl)-1H-1,2,4-triazol-3-yl)methyl)-6,10-dimethyl-1-(6-methyl-4-(trifluoromethyl)pyridin-2-yl)-1,3a,4,5,10,11a-hexahydro-2H-benzo[b]pyrrolo [2,3-f][1,4]diazocine-2,11(3H)-dione]
Kinact/Kl: 980000 M⁻¹ s⁻¹

C=CC(=O)N1CC(N(C)CCCN2C[C@H]3CC(=O)N(c4cc(C(F)(F)F)cc(C)n4)[C@@H]3C(=O)N(C)c3cccc(C)c32)C1 [Example 205, (3aR,11aS)-5-(3-((1-acryloylazetidin-3-yl)(methyl)amino)propyl)-6,10-dimethyl-1-(6-methyl-4-(trifluoromethyl)pyridin-2-yl)-1,3a,4,5,10,11a-hexahydro-2H-benzo[b]pyrrolo [2,3-f][1,4]diazocine-2,11(3H)-dione]
Kinact/Kl: 1.67e+06 M⁻¹ s⁻¹

Cc1cc(C(F)(F)F)cc(N2C(=O)C[C@@H]3CN(Cc4ccc(NC(=O)/C=C/CN(C)C)cc4)c4c(C)cccc4N(C)C(=O)[C@H]32)n1 [Example 207, (E)-N-(4-(((3aR, 11aS)-6,10-dimethyl-1-(6-methyl-4-(trifluoromethyl)pyridin-2-yl)-2,11-dioxo-1,2,3,3a,4,10,11,11a-octahydro-5H-benzo[b]pyrrolo[2,3-f][1,4]diazocin-5-yl)methyl)phenyl)-4-(dimethylamino) but-2-enamide]
Kinact/Kl: 1.82e+06 M⁻¹ s⁻¹

COc1cc(CN2C[C@H]3CC(=O)N(c4cc(C(F)(F)F)cc(C)n4)[C@@H]3C(=O)N(C)c3cccc(C)c32)ccc1NC(=O)/C=C/CN(C)C [Example 208, (E)-N-(4-(((3aR, 11aS)-6,10-dimethyl-1-(6-methyl-4-(trifluoromethyl)pyridin-2-yl)-2,11-dioxo-1,2,3,3a,4,10,11,11a-octahydro-5H-benzo[b]pyrrolo [2,3-f][1,4]diazocin-5-yl)methyl)-2-methoxyphenyl)-4-(dimethylamino) but-2-enamide]
Kinact/Kl: 4.36e+06 M⁻¹ s⁻¹

C=C(CN(C)C)C(=O)Nc1ccc(CN2C[C@H]3CC(=O)N(c4cc(C(F)(F)F)cc(C)n4)[C@@H]3C(=O)N(C)c3cccc(C)c32)cc1 [Example 209, N-(4-(((3aR,11aS)-6,10-dimethyl-1-(6-methyl-4-(trifluoromethyl)pyridin-2-yl)-2,11-dioxo-1,2,3,3a,4,10,11,11a-octahydro-5H-benzo[b]pyrrolo[2,3-f][1,4]diazocin-5-yl)methyl)phenyl)-2-((dimethylamino)methyl)acrylamide]
Kinact/Kl: 530000 M⁻¹ s⁻¹

C=C(CN(C)C)C(=O)Nc1ccc(CN2C[C@H]3CC(=O)N(c4cc(C(F)(F)F)cc(C)n4)[C@@H]3C(=O)N(C)c3cccc(C)c32)cc1OC [Example 210, N-(4-(((3aR,11aS)-6,10-dimethyl-1-(6-methyl-4-(trifluoromethyl)pyridin-2-yl)-2,11-dioxo-1,2,3,3a,4,10,11,11a-octahydro-5H-benzo[b]pyrrolo[2,3-f][1,4]diazocin-5-yl)methyl)-2-methoxyphenyl)-2-((dimethylamino)methyl)acrylamide]
Kinact/Kl: 630000 M⁻¹ s⁻¹

Cc1cc(C(F)(F)F)cc(N2C(=O)C[C@@H]3CN(Cc4ccc(NC(=O)C5=CCCN(C)C5)cc4)c4c(C)cccc4N(C)C(=O)[C@H]32)n1 [Example 211, N-(4-(((3aR, 11aS)-6,10-dimethyl-1-(6-methyl-4-(trifluoromethyl)pyridin-2-yl)-2,11-dioxo-1,2,3,3a,4,10,11,11a-octahydro-5H-benzo[b]pyrrolo [2,3-f][1,4]diazocin-5-yl)methyl)phenyl)-1-methyl-1,2,5,6-tetrahydropyridine-3-carboxamide]
Kinact/Kl: 1.57e+06 M⁻¹ s⁻¹

C=CC(=O)N1CC(N2CCC(CN3C[C@H]4CC(=O)N(c5cc(C(F)(F)F)cc(C)n5)[C@@H]4C(=O)N(C)c4cccc(F)c43)CC2)C1 [Example 212, (3aR,11aS)-5-((1-(1-acryloylazetidin-3-yl)piperidin-4-yl)methyl)-6-fluoro-10-methyl-1-(6-methyl-4-(trifluoromethyl)pyridin-2-yl)-1,3a,4,5,10,11a-hexahydro-2H-benzo[b]pyrrolo [2,3-f][1,4] diazocine-2,11 (3H)-dione]
Kinact/Kl: 1.81e+06 M⁻¹ s⁻¹

C=CC(=O)N1CC(N2CC[C@H](CN3C[C@H]4CC(=O)N(c5cc(C(F)(F)F)cc(C)n5)[C@@H]4C(=O)N(C)c4cccc(F)c43)C2)C1 [Example 213, (3aR,11aS)-5-(((S)-1-(1-acryloylazetidin-3-yl)pyrrolidin-3-yl)methyl)-6-fluoro-10-methyl-1-(6-methyl-4-(trifluoromethyl)pyridin-2-yl)-1,3a,4,5,10,11a-hexahydro-2H-benzo[b]pyrrolo [2,3-f][1,4] diazocine-2,11(3H)-dione]
Kinact/Kl: 1.08e+06 M⁻¹ s⁻¹

C=CC(=O)N1CC(N2CC[C@@H](CN3C[C@H]4CC(=O)N(c5cc(C(F)(F)F)cc(C)n5)[C@@H]4C(=O)N(C)c4cccc(F)c43)C2)C1 [Example 214, (3aR,11aS)-5-(((R)-1-(1-acryloylazetidin-3-yl)pyrrolidin-3-yl)methyl)-6-fluoro-10-methyl-1-(6-methyl-4-(trifluoromethyl)pyridin-2-yl)-1,3a,4,5,10,11a-hexahydro-2H-benzo[b]pyrrolo [2,3-f][1,4] diazocine-2,11 (3H)-dione]
Kinact/Kl: 320000 M⁻¹ s⁻¹

C=CC(=O)N1CC(N2CCC(CCN3C[C@H]4CC(=O)N(c5cc(C(F)(F)F)cc(C)n5)[C@@H]4C(=O)N(C)c4cccc(F)c43)CC2)C1 [Example 215, (3aR,11aS)-5-(2-(1-(1-acryloylazetidin-3-yl)piperidin-4-yl)ethyl)-6-fluoro-10-methyl-1-(6-methyl-4-(trifluoromethyl)pyridin-2-yl)-1,3a,4,5,10,11a-hexahydro-2H-benzo[b]pyrrolo [2,3-f][1,4] diazocine-2,11 (3H)-dione]
Kinact/Kl: 1.21e+06 M⁻¹ s⁻¹

C=CC(=O)N1CC(N2CCC(N3C[C@H]4CC(=O)N(c5cc(C(F)(F)F)cc(C)n5)[C@@H]4C(=O)N(C)c4cccc(F)c43)CC2)C1 [Example 216, (3aR,11aS)-5-(1-(1-acryloylazetidin-3-yl)piperidin-4-yl)-6-fluoro-10-methyl-1-(6-methyl-4-(trifluoromethyl)pyridin-2-yl)-1,3a,4,5,10,11a-hexahydro-2H-benzo[b]pyrrolo [2,3-f][1,4] diazocine-2,11(3H)-dione]
Kinact/Kl: 430000 M⁻¹ s⁻¹

C=CC(=O)N1CC(N2CCC(F)(CN3C[C@H]4CC(=O)N(c5cc(C(F)(F)F)cc(C)n5)[C@@H]4C(=O)N(C)c4cccc(Cl)c43)CC2)C1 [Example 217, (3aR,11aS)-5-((1-(1-acryloylazetidin-3-yl)-4-fluoropiperidin-4-yl)methyl)-6-chloro-10-methyl-1-(6-methyl-4-(trifluoromethyl)pyridin-2-yl)-1,3a,4,5,10,11a-hexahydro-2H-benzo[b] pyrrolo[2,3-f] [1,4]diazocine-2,11(3H)-dione]
Kinact/Kl: 1.59e+06 M⁻¹ s⁻¹
